Reference: US20250333407A1, “Compounds and Their Use for Treatment of Hemoglobinopathies” (Bristol-Myers Squibb Company, priority 2024, published 2025)

Tests used:
Assay type in all cases: cell-based
ZBTB7A = biological target: T1, ZBTB7A (Homo sapiens, UniProt O95365+Q96SW2); assay: HUDEP-2 ZBTB7A HiBiT degradation assay; details: HiBiT-tagged ZBTB7A degradation in HUDEP-2 cells, 24 hours of treatment; read-out: ZBTB7A EC50
T1 construct: HUDEP-2 cells engineered to express a HiBiT tag in either the WIZ (Widely interspaced zinc finger) or ZBTB7A
Procedure, shortened: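 HiBiT-tagged HUDEP-2 cells were pre-cultured 48 h in IMDM with EPO, SCF, doxycycline and 5% human plasma, then exposed to compounds at 1.0×10^6 cells/ml for 24 h at 37 °C. Nano-Glo HiBiT lytic luminescence, normalised to DMSO over 10 concentrations, gave EC50 and Y-min.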

WIZ = biological target: T2, WIZ (Homo sapiens, UniProt O95785+Q96SW2); assay: HUDEP-2 WIZ HiBiT degradation assay; details: HiBiT-tagged WIZ degradation in HUDEP-2 cells, 24 hours of treatment; read-out: WIZ EC50
T2 construct: HUDEP-2 cells engineered to express a HiBiT tag in either the WIZ (Widely interspaced zinc finger) or ZBTB7A
Procedure, shortened: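 HiBiT-tagged HUDEP-2 cells at 1.0×10^6 cells/ml in SFEM II with SCF, EPO, dexamethasone and doxycycline, treated 24 h at 37 °C with a 10-point series ([…]). Luminescence after HiBiT lytic detection, normalized to DMSO; EC50 and Y-min from fitted curves.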

HbF = HbF HiBiT induction assay in HUDEP-2 cells; details: HUDEP-2 cells with HiBiT tag in HBG1/2, 72 hours of treatment; area under the dose response curve, higher AUC = greater HbF induction
Procedure, shortened: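 HUDEP-2 cells carrying a HiBiT tag on HBG1/2 were exposed to compounds for 72 h at 37° C, 5% CO2, in IMDM with EPO, hSCF, DOX, transferrin, insulin, heparin and 5% human plasma. HiBiT luminescence was read after lytic detection; HbF induction is expressed as dose-response AUC, alongside EC50 and Ymax.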

T2 sequence (O95785 whole entry): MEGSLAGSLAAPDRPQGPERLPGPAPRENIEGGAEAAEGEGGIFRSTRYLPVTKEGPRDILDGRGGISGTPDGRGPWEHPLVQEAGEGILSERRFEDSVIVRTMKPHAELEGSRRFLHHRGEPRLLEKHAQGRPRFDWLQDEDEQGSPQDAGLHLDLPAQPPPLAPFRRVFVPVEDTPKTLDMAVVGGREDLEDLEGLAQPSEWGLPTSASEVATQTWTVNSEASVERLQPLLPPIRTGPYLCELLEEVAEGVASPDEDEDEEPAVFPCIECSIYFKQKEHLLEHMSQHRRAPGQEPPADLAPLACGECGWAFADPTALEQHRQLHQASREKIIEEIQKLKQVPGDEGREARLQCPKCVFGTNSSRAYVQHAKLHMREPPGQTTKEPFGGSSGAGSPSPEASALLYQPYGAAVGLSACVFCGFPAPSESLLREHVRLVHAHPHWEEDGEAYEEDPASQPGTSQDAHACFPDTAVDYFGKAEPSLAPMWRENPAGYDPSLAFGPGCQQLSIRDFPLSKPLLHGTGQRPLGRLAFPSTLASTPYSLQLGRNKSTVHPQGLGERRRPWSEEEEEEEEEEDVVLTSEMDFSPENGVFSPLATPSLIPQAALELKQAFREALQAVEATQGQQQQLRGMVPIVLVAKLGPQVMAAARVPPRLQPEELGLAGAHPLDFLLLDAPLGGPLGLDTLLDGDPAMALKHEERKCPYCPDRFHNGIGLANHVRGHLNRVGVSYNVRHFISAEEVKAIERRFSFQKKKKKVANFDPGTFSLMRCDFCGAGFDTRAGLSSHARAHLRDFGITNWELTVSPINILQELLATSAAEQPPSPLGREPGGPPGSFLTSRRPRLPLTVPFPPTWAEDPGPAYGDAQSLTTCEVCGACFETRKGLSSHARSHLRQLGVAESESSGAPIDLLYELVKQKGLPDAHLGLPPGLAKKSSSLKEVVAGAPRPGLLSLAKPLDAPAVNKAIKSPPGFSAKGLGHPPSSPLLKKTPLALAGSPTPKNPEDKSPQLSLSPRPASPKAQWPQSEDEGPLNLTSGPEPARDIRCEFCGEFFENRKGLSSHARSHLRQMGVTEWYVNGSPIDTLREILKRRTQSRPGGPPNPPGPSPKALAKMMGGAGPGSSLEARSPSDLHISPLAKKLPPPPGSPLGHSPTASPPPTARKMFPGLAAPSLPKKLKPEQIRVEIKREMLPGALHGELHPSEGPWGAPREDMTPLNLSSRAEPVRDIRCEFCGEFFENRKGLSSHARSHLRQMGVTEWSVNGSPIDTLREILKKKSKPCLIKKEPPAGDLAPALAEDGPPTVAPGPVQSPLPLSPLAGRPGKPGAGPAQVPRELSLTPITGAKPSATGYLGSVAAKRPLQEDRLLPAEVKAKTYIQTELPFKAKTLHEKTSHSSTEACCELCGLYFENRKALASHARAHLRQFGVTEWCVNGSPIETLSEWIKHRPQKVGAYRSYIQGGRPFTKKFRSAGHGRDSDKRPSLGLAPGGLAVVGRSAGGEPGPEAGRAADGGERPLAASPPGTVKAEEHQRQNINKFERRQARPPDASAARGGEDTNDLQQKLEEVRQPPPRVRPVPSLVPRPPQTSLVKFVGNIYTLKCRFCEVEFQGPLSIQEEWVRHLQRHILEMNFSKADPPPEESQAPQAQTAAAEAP
T2 sequence (Q96SW2 whole entry): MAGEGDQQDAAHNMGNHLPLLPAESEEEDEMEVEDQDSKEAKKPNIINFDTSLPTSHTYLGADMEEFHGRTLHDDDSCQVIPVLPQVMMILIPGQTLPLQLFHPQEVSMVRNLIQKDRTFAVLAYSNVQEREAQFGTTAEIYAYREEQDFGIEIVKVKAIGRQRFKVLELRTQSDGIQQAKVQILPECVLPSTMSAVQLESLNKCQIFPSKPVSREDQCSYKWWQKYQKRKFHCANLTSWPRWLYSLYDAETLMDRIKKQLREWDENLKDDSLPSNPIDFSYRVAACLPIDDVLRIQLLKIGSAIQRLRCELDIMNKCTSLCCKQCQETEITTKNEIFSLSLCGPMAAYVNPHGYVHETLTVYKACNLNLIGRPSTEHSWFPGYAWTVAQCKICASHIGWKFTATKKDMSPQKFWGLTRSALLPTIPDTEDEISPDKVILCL
T2 sequence (Q16531 whole entry partner): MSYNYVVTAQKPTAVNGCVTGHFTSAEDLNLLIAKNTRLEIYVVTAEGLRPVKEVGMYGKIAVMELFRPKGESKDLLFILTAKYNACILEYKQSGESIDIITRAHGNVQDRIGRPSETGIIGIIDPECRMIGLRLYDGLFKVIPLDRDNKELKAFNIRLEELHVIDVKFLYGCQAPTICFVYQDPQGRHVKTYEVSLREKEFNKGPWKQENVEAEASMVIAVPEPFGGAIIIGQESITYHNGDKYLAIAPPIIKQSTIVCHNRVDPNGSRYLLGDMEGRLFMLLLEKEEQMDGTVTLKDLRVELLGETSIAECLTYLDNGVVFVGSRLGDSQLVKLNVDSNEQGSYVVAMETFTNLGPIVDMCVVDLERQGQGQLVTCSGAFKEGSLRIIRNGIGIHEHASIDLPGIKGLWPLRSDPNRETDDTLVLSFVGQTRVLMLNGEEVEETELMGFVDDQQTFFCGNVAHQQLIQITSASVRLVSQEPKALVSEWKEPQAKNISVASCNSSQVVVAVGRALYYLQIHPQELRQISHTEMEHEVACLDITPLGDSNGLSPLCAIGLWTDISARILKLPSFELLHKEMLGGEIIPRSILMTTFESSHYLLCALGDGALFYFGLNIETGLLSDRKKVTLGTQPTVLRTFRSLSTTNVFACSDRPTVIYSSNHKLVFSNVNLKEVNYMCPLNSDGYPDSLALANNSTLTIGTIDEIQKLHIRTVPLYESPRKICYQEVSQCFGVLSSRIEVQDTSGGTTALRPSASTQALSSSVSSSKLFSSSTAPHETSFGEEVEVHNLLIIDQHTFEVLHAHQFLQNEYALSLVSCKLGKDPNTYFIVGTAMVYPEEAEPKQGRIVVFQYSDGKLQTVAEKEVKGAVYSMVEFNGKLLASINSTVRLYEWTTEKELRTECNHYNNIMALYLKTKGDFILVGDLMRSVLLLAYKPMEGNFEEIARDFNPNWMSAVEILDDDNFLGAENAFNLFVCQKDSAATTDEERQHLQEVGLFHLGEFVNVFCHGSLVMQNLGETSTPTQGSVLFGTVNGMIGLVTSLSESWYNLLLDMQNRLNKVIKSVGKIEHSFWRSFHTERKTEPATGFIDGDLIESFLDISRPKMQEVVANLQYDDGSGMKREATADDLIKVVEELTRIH
T1 sequence (O95365 whole entry): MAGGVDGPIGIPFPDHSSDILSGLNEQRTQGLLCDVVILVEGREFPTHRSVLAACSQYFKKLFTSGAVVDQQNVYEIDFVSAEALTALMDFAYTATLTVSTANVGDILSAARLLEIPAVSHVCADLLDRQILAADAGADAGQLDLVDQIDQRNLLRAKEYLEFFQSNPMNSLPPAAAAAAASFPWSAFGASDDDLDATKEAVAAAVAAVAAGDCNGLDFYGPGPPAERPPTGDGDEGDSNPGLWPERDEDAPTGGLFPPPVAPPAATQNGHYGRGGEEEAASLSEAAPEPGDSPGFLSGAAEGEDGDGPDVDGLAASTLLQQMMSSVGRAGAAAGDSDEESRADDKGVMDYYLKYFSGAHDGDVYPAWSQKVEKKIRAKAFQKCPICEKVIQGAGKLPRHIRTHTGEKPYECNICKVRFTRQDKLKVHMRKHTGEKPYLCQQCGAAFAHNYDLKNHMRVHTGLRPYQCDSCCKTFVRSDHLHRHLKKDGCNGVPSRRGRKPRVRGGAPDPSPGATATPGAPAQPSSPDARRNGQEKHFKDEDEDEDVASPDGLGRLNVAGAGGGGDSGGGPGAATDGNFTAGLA
T1 sequence (Q96SW2 whole entry): as the sequence (Q96SW2 whole entry) above
T1 sequence (Q16531 whole entry partner): as the sequence (Q16531 whole entry partner) above

Row | SMILES | DC50 (ZBTB7A) | DC50 (WIZ) | HBF AUC (HbF)
1 | COc1nccc(-c2cc3c(cc2Nc2cccc4c2C(=O)N([C@H]2CCC(=O)NC2=O)C4=O)N(C)C(=O)[C@H](C)O3)c1F [Compound 35, 2-((S)-2,6-dioxopiperidin-3-yl)-4-(((S)-7-(3-fluoro-2-methoxypyridin-4-yl)-2,4-dimethyl-3-oxo-3,4-dihydro-2H-benzo[b][1,4]oxazin-6-yl)amino)isoindoline-1,3-dione] | 8 nM | 11 nM | + (+ = 15 ≤ AUC < 100)
2 | COc1nccc(-c2cc3c(cc2Nc2cccc4c2C(=O)N([C@H]2CCC(=O)NC2=O)C4=O)N(C)C(=O)[C@@H](C)O3)c1F [Compound 36, 2-((S)-2,6-dioxopiperidin-3-yl)-4-(((R)-7-(3-fluoro-2-methoxypyridin-4-yl)-2,4-dimethyl-3-oxo-3,4-dihydro-2H-benzo[b][1,4]oxazin-6-yl)amino)isoindoline-1,3-dione] | 19 nM | 15 nM | + (+ = 15 ≤ AUC < 100)
3 | Cc1ccc(-c2cc3c(cc2Nc2cccc4c2C(=O)N([C@H]2CCC(=O)NC2=O)C4=O)N(C)C(=O)CO3)c(F)n1 [Compound 37, (S)-2-(2,6-dioxopiperidin-3-yl)-4-((7-(2-fluoro-6-methylpyridin-3-yl)-4-methyl-3-oxo-3,4-dihydro-2H-benzo[b][1,4]oxazin-6-yl)amino)isoindoline-1,3-dione] | 13 nM | 7 nM | + (+ = 15 ≤ AUC < 100)
4 | COc1ccc(-c2cc3c(cc2Nc2cccc4c2C(=O)N([C@H]2CCC(=O)NC2=O)C4=O)N(C)C(=O)CO3)cn1 [Compound 38, (S)-2-(2,6-dioxopiperidin-3-yl)-4-((7-(6-methoxypyridin-3-yl)-4-methyl-3-oxo-3,4-dihydro-2H-benzo[b][1,4]oxazin-6-yl)amino)isoindoline-1,3-dione] | 13 nM | 14 nM | ++ (++ = 100 ≤ AUC < 150)
5 | COc1ccc(-c2cc3c(cc2Nc2cccc4c2C(=O)N([C@H]2CCC(=O)NC2=O)C4=O)N(C)C(=O)[C@@H](C)O3)cn1 [Compound 39, 2-((S)-2,6-dioxopiperidin-3-yl)-4-(((R)-7-(6-methoxypyridin-3-yl)-2,4-dimethyl-3-oxo-3,4-dihydro-2H-benzo[b][1,4]oxazin-6-yl)amino)isoindoline-1,3-dione] | 16 nM | 13 nM | + (+ = 15 ≤ AUC < 100)
6 | COc1ccc(-c2cc3c(cc2Nc2cccc4c2C(=O)N([C@H]2CCC(=O)NC2=O)C4=O)N(C)C(=O)[C@H](C)O3)cn1 [Compound 40, 2-((S)-2,6-dioxopiperidin-3-yl)-4-(((S)-7-(6-methoxypyridin-3-yl)-2,4-dimethyl-3-oxo-3,4-dihydro-2H-benzo[b][1,4]oxazin-6-yl)amino)isoindoline-1,3-dione] | 16 nM | 12 nM | + (+ = 15 ≤ AUC < 100)
7 | Cc1cncc(-c2cc3c(cc2Nc2cccc4c2C(=O)N([C@H]2CCC(=O)NC2=O)C4=O)N(C)C(=O)CO3)c1 [Compound 41, (S)-2-(2,6-dioxopiperidin-3-yl)-4-((4-methyl-7-(5-methylpyridin-3-yl)-3-oxo-3,4-dihydro-2H-benzo[b][1,4]oxazin-6-yl)amino)isoindoline-1,3-dione] | 17 nM | 10 nM | +++ (+++ = AUC ≥ 150)
8 | Cc1cncc(-c2cc3c(cc2Nc2cccc4c2C(=O)N([C@H]2CCC(=O)NC2=O)C4=O)N(C)C(=O)[C@@H](C)O3)c1 [Compound 42, 4-(((R)-2,4-dimethyl-7-(5-methylpyridin-3-yl)-3-oxo-3,4-dihydro-2H-benzo[b][1,4]oxazin-6-yl)amino)-2-((S)-2,6-dioxopiperidin-3-yl)isoindoline-1,3-dione] | 18 nM | 9 nM | + (+ = 15 ≤ AUC < 100)
9 | Cc1cncc(-c2cc3c(cc2Nc2cccc4c2C(=O)N([C@H]2CCC(=O)NC2=O)C4=O)N(C)C(=O)[C@H](C)O3)c1 [Compound 43, 4-(((S)-2,4-dimethyl-7-(5-methylpyridin-3-yl)-3-oxo-3,4-dihydro-2H-benzo[b][1,4]oxazin-6-yl)amino)-2-((S)-2,6-dioxopiperidin-3-yl)isoindoline-1,3-dione] | 24 nM | 15 nM | ++ (++ = 100 ≤ AUC < 150)
10 | CCO[C@H]1CC[C@H](c2cc3c(cc2Nc2cccc4c2C(=O)N([C@H]2CCC(=O)NC2=O)C4=O)N(C)C(=O)CO3)CC1 [Compound 44, 2-((S)-2,6-dioxopiperidin-3-yl)-4-((7-((1r,4S)-4-ethoxycyclohexyl)-4-methyl-3-oxo-3,4-dihydro-2H-benzo[b][1,4]oxazin-6-yl)amino)isoindoline-1,3-dione] | 6 nM | 4 nM | ++ (++ = 100 ≤ AUC < 150)
11 | CCO[C@H]1CC[C@H](c2cc3c(cc2Nc2cccc4c2C(=O)N([C@H]2CCC(=O)NC2=O)C4=O)N(C)C(=O)[C@@H](C)O3)CC1 [Compound 45, 2-((S)-2,6-dioxopiperidin-3-yl)-4-(((R)-7-((1r,4R)-4-ethoxycyclohexyl)-2,4-dimethyl-3-oxo-3,4-dihydro-2H-benzo[b][1,4]oxazin-6-yl)amino)isoindoline-1,3-dione] | 10 nM | 6 nM | ++ (++ = 100 ≤ AUC < 150)
12 | CCO[C@H]1CC[C@H](c2cc3c(cc2Nc2cccc4c2C(=O)N([C@H]2CCC(=O)NC2=O)C4=O)N(C)C(=O)[C@H](C)O3)CC1 [Compound 46, 2-((S)-2,6-dioxopiperidin-3-yl)-4-(((S)-7-((1r,4S)-4-ethoxycyclohexyl)-2,4-dimethyl-3-oxo-3,4-dihydro-2H-benzo[b][1,4]oxazin-6-yl)amino)isoindoline-1,3-dione] | 7 nM | 2 nM | ++ (++ = 100 ≤ AUC < 150)
13 | Cc1cc(-c2cc3c(cc2Nc2cccc4c2C(=O)N([C@H]2CCC(=O)NC2=O)C4=O)N(C)C(=O)CO3)cc(C(F)F)n1 [Compound 47, (S)-4-((7-(2-(difluoromethyl)-6-methylpyridin-4-yl)-4-methyl-3-oxo-3,4-dihydro-2H-benzo[b][1,4]oxazin-6-yl)amino)-2-(2,6-dioxopiperidin-3-yl)isoindoline-1,3-dione] | 49 nM | 43 nM | +++ (+++ = AUC ≥ 150)
14 | Cc1cc(-c2cc3c(cc2Nc2cccc4c2C(=O)N([C@H]2CCC(=O)NC2=O)C4=O)N(C)C(=O)[C@H](C)O3)cc(C(F)F)n1 [Compound 48, 4-(((S)-7-(2-(difluoromethyl)-6-methylpyridin-4-yl)-2,4-dimethyl-3-oxo-3,4-dihydro-2H-benzo[b][1,4]oxazin-6-yl)amino)-2-((S)-2,6-dioxopiperidin-3-yl)isoindoline-1,3-dione] | 52 nM | 31 nM | ++ (++ = 100 ≤ AUC < 150)
15 | Cc1cc(-c2cc3c(cc2Nc2cccc4c2C(=O)N([C@H]2CCC(=O)NC2=O)C4=O)N(C)C(=O)[C@@H](C)O3)cc(C(F)F)n1 [Compound 49, 4-(((R)-7-(2-(difluoromethyl)-6-methylpyridin-4-yl)-2,4-dimethyl-3-oxo-3,4-dihydro-2H-benzo[b][1,4]oxazin-6-yl)amino)-2-((S)-2,6-dioxopiperidin-3-yl)isoindoline-1,3-dione] | 71 nM | 39 nM | ++ (++ = 100 ≤ AUC < 150)
16 | Cc1cc(-c2cc3c(cc2Nc2cccc4c2C(=O)N(C2CCC(=O)NC2=O)C4=O)N(C)S(=O)(=O)CC3)ccn1 (stereo not drawn) [Compound 50, 2-(2,6-dioxopiperidin-3-yl)-4-((1-methyl-6-(2-methylpyridin-4-yl)-2,2-dioxido-3,4-dihydro-1H-benzo[c][1,2]thiazin-7-yl)amino)isoindoline-1,3-dione] | 28 nM | 18 nM | + (+ = 15 ≤ AUC < 100)
17 | COc1ncc(-c2cc3c(cc2Nc2cccc4c2C(=O)N(C2CCC(=O)NC2=O)C4=O)N(C)C(=O)CO3)cc1F (stereo not drawn) [Compound 51, 2-(2,6-dioxopiperidin-3-yl)-4-((7-(5-fluoro-6-methoxypyridin-3-yl)-4-methyl-3-oxo-3,4-dihydro-2H-benzo[b][1,4]oxazin-6-yl)amino)isoindoline-1,3-dione] | 30 nM | 37 nM | ++ (++ = 100 ≤ AUC < 150)
18 | CCOc1cc(-c2cc3c(cc2Nc2cccc4c2C(=O)N(C2CCC(=O)NC2=O)C4=O)N(C)C(=O)CO3)ccn1 (stereo not drawn) [Compound 52, 2-(2,6-dioxopiperidin-3-yl)-4-((7-(2-ethoxypyridin-4-yl)-4-methyl-3-oxo-3,4-dihydro-2H-benzo[b][1,4]oxazin-6-yl)amino)isoindoline-1,3-dione] | 143 nM | 12 nM | + (+ = 15 ≤ AUC < 100)
19 | CN1C(=O)COc2cc([C@H]3CC[C@H](C#N)CC3)c(Nc3cccc4c3C(=O)N(C3CCC(=O)NC3=O)C4=O)cc21 (stereo partly drawn) [Compound 53, (1r,4r)-4-(6-((2-(2,6-dioxopiperidin-3-yl)-1,3-dioxoisoindolin-4-yl)amino)-4-methyl-3-oxo-3,4-dihydro-2H-benzo[b][1,4]oxazin-7-yl)cyclohexane-1-carbonitrile] | 10 nM | 4 nM | ++ (++ = 100 ≤ AUC < 150)
